Measurements from ChEMBL document CHEMBL5696442, “Discovery of type II inhibitors of TGFβ-activated kinase 1 (TAK1) and mitogen-activated protein kinase kinase kinase kinase 2 (MAP4K2)” (J Med Chem, 2015).
Calls of active or inactive are those of the source. The calls are words filed in the database; no cut-off is given here.

Experiments:
[1] = molecular target: Serine/threonine-protein kinase WNK1 (Homo sapiens) (UniProt Q9H4A3); test: Inhibition of Wnk1 Lys2 labeling site in human Huh-7 cell lysate at 1 uM by KiNativ Profiling analysis relative to control; format: subcellular
[2] = molecular target: Serine/threonine-protein kinase 16 (Homo sapiens) (UniProt O75716); test: Inhibition of MPSK1 Lys2 labeling site in human Huh-7 cell lysate at 1 uM by KiNativ Profiling analysis relative to control; format: subcellular
Chain of Serine/threonine-protein kinase 16 (Homo sapiens) (O75716 whole entry): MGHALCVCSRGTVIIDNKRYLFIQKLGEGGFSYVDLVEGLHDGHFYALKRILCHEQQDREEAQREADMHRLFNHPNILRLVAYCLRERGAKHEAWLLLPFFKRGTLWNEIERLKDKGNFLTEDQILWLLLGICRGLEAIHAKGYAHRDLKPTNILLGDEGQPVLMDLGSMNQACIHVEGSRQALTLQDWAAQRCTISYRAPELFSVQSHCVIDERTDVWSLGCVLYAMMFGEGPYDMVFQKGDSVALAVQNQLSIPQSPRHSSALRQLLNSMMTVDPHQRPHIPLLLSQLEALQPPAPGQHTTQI

[3] = molecular target: T1, NUAK family SNF1-like kinase 2 (Homo sapiens) (UniProt Q9H093); test: Inhibition of SNARK (unknown origin) at 10 uM by Ambit Kinomescan binding assay
T1 sequence (whole entry): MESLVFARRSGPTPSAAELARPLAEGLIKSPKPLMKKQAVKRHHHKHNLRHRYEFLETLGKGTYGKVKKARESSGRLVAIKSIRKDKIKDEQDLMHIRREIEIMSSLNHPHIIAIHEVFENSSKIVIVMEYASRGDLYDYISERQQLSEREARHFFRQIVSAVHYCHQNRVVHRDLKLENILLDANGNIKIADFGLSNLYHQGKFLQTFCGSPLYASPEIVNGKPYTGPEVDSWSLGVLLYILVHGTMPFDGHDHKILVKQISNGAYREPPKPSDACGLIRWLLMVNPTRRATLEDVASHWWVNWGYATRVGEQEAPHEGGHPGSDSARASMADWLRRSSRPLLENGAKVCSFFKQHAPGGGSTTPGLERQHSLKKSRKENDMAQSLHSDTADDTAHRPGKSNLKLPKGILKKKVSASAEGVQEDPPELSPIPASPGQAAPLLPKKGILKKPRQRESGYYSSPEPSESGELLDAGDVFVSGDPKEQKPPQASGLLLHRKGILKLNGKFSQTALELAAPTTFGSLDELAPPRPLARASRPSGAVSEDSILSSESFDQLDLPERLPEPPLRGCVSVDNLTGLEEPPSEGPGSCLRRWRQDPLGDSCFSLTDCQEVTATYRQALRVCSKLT

[4] = molecular target: Serine/threonine-protein kinase ATR (Homo sapiens) (UniProt Q13535); test: Inhibition of ATR ATP labeling site in human A-375 cells at 0.5 uM by KiNativ Profiling analysis relative to control; format: cell-based
[5] = molecular target: Tyrosine-protein kinase HCK (Homo sapiens) (UniProt P08631); test: Inhibition of HCK (unknown origin) at 10 uM by Ambit Kinomescan binding assay relative to control; values are per cent of control
Chain of Tyrosine-protein kinase HCK (Homo sapiens) (P08631 2-526 limits assumed): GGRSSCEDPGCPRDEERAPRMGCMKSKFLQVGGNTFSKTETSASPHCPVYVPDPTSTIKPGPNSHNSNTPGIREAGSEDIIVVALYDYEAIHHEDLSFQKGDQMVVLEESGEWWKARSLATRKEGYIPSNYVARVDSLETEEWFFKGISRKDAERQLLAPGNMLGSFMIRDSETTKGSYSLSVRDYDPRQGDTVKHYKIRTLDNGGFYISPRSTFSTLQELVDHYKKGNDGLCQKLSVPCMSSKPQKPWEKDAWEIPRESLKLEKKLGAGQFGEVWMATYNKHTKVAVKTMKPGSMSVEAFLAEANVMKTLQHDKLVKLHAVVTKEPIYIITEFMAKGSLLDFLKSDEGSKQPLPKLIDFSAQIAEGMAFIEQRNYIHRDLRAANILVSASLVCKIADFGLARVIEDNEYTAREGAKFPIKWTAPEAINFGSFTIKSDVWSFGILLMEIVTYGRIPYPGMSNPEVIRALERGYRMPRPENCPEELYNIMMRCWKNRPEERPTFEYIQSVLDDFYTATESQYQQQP

[6] = molecular target: Phosphatidylinositol 4,5-bisphosphate 3-kinase catalytic subunit beta isoform (Homo sapiens) (UniProt P42338); test: Inhibition of PIK3CB ATP labeling site in human Huh-7 cells at 1 uM by KiNativ Profiling analysis relative to control; format: cell-based
[7] = molecular target: Dual specificity mitogen-activated protein kinase kinase 1 (Homo sapiens) (UniProt Q02750); test: Inhibition of MAP2K1 Lys2 labeling site harbouring DVKPSNILVNSR in human A-375 cells at 5 uM by KiNativ Profiling analysis relative to control; format: cell-based
Chain of Dual specificity mitogen-activated protein kinase kinase 1 (Homo sapiens) (Q02750 whole entry): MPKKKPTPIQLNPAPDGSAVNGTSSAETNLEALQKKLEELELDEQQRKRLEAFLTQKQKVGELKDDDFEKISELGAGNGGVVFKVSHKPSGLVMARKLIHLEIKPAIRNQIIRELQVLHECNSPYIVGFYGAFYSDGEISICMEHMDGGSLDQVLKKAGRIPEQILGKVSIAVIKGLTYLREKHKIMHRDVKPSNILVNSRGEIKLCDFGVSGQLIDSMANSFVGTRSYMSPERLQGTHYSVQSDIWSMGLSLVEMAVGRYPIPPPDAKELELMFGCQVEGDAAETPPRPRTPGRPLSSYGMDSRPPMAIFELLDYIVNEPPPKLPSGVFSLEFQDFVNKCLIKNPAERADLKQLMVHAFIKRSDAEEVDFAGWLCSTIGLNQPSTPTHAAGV

[8] = molecular target: MAP kinase-activated protein kinase 2 (Homo sapiens) (UniProt P49137); test: Inhibition of MAPKAPK2 (unknown origin) at 1 uM by Ambit Kinomescan binding assay relative to control
Chain of MAP kinase-activated protein kinase 2 (Homo sapiens) (P49137 whole entry, looked up): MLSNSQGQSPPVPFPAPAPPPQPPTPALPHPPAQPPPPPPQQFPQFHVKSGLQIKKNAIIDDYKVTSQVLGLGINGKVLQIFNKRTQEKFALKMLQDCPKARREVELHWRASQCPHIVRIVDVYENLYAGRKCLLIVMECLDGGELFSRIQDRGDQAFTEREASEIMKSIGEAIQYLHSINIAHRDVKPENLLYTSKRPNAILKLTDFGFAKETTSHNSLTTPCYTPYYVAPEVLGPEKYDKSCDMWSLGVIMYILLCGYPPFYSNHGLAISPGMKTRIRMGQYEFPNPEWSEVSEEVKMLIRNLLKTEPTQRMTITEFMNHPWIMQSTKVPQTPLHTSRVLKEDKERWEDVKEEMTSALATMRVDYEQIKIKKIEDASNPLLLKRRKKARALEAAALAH

[9] = molecular target: MAP/microtubule affinity-regulating kinase 3 (Homo sapiens) (UniProt P27448); test: Inhibition of MARK3 Lys1 labeling site in human A-375 cells at 0.5 uM by KiNativ Profiling analysis relative to control; format: cell-based
[10] = molecular target: Mitogen-activated protein kinase kinase kinase 9 (Homo sapiens) (UniProt P80192); test: Inhibition of MLK1 (unknown origin) at 1 uM by Ambit Kinomescan binding assay relative to control; values are per cent of control
Chain of Mitogen-activated protein kinase kinase kinase 9 (Homo sapiens) (P80192 whole entry, looked up): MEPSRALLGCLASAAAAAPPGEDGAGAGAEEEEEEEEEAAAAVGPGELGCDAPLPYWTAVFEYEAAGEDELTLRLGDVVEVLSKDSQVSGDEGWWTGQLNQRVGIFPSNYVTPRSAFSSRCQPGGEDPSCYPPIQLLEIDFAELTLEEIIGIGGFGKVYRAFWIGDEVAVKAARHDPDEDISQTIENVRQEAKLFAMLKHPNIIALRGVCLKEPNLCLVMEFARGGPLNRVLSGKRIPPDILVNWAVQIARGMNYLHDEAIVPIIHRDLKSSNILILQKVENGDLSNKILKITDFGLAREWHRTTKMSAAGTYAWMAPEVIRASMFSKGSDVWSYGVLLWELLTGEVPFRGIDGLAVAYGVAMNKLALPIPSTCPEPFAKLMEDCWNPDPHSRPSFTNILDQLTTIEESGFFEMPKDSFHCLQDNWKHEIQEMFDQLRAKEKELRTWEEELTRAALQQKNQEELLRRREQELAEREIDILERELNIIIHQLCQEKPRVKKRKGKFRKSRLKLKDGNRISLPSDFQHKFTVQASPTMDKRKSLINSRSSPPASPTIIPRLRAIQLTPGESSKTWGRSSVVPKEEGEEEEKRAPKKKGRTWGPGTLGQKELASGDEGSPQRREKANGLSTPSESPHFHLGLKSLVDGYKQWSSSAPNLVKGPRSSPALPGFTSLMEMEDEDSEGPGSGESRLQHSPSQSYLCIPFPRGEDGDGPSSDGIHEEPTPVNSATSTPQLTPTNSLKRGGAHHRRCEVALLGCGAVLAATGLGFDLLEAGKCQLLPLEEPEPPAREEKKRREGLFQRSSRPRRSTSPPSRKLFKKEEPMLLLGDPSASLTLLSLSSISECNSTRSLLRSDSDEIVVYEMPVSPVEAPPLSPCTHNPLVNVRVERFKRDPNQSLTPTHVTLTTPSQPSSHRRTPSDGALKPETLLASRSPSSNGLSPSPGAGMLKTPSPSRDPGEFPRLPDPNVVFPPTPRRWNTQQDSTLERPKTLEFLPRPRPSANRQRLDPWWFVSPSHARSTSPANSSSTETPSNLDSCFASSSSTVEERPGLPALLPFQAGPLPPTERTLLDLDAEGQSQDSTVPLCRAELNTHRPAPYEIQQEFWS

[11] = molecular target: Serine/threonine-protein kinase 32C (Homo sapiens) (UniProt Q86UX6); test: Inhibition of YANK3 Lys2 labeling site in human A-375 cells at 0.05 uM by KiNativ Profiling analysis relative to control; format: cell-based
Chain of Serine/threonine-protein kinase 32C (Homo sapiens) (Q86UX6 whole entry): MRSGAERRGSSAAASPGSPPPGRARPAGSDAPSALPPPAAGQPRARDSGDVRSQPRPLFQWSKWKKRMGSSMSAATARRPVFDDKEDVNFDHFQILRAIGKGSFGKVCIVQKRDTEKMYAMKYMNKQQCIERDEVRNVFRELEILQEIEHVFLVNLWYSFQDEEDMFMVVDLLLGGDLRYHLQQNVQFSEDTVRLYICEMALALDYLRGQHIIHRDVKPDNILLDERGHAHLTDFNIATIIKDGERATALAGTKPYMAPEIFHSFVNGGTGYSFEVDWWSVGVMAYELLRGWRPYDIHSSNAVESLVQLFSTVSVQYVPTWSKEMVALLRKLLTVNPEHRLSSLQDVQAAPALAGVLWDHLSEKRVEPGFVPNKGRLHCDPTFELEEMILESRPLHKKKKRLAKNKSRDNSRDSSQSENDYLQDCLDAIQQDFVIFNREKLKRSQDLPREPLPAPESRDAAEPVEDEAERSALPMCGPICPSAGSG

[12] = molecular target: Eukaryotic translation initiation factor 2-alpha kinase 1 (Homo sapiens) (UniProt Q9BQI3); test: Inhibition of EIF2AK1 (unknown origin) at 1 uM by Ambit Kinomescan binding assay relative to control; values are per cent of control
Chain of Eukaryotic translation initiation factor 2-alpha kinase 1 (Homo sapiens) (Q9BQI3 whole entry): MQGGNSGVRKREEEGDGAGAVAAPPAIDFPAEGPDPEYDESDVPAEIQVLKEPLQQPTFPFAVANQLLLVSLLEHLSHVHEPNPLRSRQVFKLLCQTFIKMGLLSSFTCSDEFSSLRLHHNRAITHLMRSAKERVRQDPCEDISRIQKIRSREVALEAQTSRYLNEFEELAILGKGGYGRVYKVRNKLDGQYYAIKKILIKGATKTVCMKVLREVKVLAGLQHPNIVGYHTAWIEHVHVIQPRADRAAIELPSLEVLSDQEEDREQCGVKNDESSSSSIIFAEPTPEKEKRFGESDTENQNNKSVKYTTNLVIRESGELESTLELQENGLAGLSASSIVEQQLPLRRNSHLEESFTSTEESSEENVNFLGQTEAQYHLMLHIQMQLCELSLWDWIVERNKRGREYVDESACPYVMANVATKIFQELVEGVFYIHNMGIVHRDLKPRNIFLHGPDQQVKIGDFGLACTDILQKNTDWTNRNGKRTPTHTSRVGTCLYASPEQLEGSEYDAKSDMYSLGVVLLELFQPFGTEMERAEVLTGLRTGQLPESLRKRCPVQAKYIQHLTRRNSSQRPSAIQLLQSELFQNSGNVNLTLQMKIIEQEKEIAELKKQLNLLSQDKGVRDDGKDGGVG

[13] = molecular target: Hormonally up-regulated neu tumor-associated kinase (Homo sapiens) (UniProt P57058); test: Inhibition of HUNK (unknown origin) at 1 uM by Ambit Kinomescan binding assay relative to control; values are per cent of control
Chain of Hormonally up-regulated neu tumor-associated kinase (Homo sapiens) (P57058 whole entry): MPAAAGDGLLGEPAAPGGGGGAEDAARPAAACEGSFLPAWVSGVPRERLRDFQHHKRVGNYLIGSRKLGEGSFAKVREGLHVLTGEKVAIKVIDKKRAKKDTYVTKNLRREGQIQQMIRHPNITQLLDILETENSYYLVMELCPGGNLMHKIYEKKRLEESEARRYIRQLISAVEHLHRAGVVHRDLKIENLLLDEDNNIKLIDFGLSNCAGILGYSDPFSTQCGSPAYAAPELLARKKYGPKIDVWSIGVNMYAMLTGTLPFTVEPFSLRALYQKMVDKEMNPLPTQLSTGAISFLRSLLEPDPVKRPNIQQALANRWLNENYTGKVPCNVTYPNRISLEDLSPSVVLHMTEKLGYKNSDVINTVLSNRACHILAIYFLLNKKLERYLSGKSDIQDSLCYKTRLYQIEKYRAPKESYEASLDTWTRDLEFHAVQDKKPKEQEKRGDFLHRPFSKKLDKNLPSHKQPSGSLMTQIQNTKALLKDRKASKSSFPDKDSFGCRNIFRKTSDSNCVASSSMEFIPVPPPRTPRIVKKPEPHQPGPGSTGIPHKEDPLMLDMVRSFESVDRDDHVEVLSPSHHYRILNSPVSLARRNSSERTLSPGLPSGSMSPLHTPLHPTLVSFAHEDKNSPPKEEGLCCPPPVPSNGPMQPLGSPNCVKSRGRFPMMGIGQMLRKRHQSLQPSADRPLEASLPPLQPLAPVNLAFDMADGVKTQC

[14] = molecular target: Serine/threonine-protein kinase 38-like (Homo sapiens) (UniProt Q9Y2H1); test: Inhibition of NDR2 Lys2 labeling site in human A-375 cells at 0.5 uM by KiNativ Profiling analysis relative to control; format: cell-based
Chain of Serine/threonine-protein kinase 38-like (Homo sapiens) (Q9Y2H1 2-464 limits assumed): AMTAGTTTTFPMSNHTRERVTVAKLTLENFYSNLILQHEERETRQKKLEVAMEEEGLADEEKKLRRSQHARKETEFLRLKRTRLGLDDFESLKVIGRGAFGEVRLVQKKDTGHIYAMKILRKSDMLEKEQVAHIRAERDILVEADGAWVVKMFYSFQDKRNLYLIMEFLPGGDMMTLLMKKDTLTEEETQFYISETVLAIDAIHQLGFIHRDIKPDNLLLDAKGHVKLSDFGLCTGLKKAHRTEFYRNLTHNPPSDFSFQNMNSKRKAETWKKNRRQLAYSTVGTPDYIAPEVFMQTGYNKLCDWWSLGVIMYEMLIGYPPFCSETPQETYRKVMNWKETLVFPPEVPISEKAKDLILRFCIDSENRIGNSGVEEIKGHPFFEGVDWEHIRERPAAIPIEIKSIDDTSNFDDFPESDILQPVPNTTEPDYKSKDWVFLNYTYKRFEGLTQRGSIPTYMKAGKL

CNc1cc(Oc2cc(C(=O)Nc3cc(N4CCN(C)CC4)cc(C(F)(F)F)c3)ccc2C)ncn1
inhibition [1]: 2.7%
inhibition [2]: 4.6%

CCN1CCN(Cc2ccc(NC(=O)c3ccc(C)c(Oc4ccnc5[nH]ccc45)c3)cc2C(F)(F)F)CC1
inhibition [3]: inactive
inhibition [4]: 5.1%
percent of control [5]: 0.4%
inhibition [6]: inactive
inhibition [7]: -10%

CCN1CCN(Cc2ccc(NC(=O)c3ccc(C)c(/C=C/c4cnc5[nH]ccc5c4OC)c3)cc2C(F)(F)F)CC1
inhibition [8]: 100%
inhibition [9]: 12.3%
residual activity [10]: 4.7%
inhibition [11]: -4.2%
residual activity [12]: 100%
residual activity [13]: 57%
inhibition [14]: 13.4%
